Consider one compound from patent US20030040531A1, “Remedies for reperfusion injury containing integrin alphanubeta 3 antagonist” (priority 2000, published 2003).

The test system of test [1] is human vascular smooth muscle cells. As to the kind of experiment: adhesion of human vascular smooth muscle cells to immobilized human vitronectin. It counts as cell-based. The note with it: read-out: concentration (IC50) necessary for inhibition of adhesion to vitronectin. The protocol: (§1) The adhesion of vascular smooth muscle cells to immobilized human vitronectin was measured in accordance with the method of Liaw et al. (L. Liaw et al., Circ. Res., 74, 214 (1994)). A Dulbecco's phosphate buffer (Dulbecco's PBS(−)) solution of human serum-derived vitronectin adjusted to a concentration of 4 μg/ml was first added to wells (50 μl/well) of a microplate (Maxisorp), and a reaction for immobilization was allowed to proceed at 4° C. overnight. After washing twice with 150 μl of Dulbecco's PBS (−), Dulbecco's PBS (−) containing 10 mg/ml of bovine serum albumin was added, followed by blocking at 37° C. for one hr. The microplate was then washed twice with 150 μl of Dulbecco's PBS (−) to prepare an assay plate.
Separately, human vascular smooth muscle cells cultivated at 37° C. under 5% carbon dioxide in a medium for vascular smooth muscle cells were separated using a Dulbecco's PBS (−) containing trypsin-EDTA, were washed with Dulbecco's PBS (−), and were then suspended in a Dulbecco's modified Eagle's basal medium to a concentration of 2×10^5/ml.
(§2) Next, 50 μl of a Dulbecco's modified Eagle's basal medium containing 20 mg/ml of bovine serum albumin with a medicament added thereto was added to the wells of the human vitronectin-coated assay microplate, followed by pre-cultivation under 5% carbon dioxide at 37° C. for 10 min. Thereafter, 50 μl of the Dulbecco's modified Eagle's basal medium with human vascular smooth muscle cells suspended therein was added thereto, and the plate was thoroughly stirred. A reaction was allowed to proceed under 5% carbon dioxide at 37° C. for 90 min. The reaction solution containing non-adherent cells was then removed, followed by washing three times with Dulbecco's PBS (−). For the adhered cells, 100 μl of Dulbecco's PBS (−) containing 4% paraformaldehyde was added, and immobilization was allowed to proceed at room temperature for 10 min. Next, 100 μl of a Dulbecco's PBS (−) containing 0.5% Toluidine Blue and 4% paraformaldehyde was added, and staining was allowed to proceed at room temperature for 5 min, followed by thorough washing with distilled water. The inside of the wells was then air-dried, and 1% aqueous sodium dodecylsulfate solution was then added to perform cytolysis. The absorbance of the microplate thus obtained was measured at 595 nm. […] The inhibition was calculated by the following equation. IC50 was determined from a primary regression line of the logarithm of each concentration of the test compound and the logarithm of (100−inhibition)/inhibition. [formula]

For test [2], the system named is hamster vascular smooth muscle cells. As to the kind of experiment: adhesion of hamster vascular smooth muscle cells to rat vitronectin. The test is classed as cell-based. The note with it: Mesocricetus auratus, read-out: concentration (IC50) necessary for inhibition of adhesion to vitronectin. The protocol:
as §1
Next, 50 μl of a Dulbecco's modified Eagle's basal medium containing 20 mg/ml of bovine serum albumin with a medicament added thereto was added to the wells of the human vitronectin-coated assay microplate, followed by pre-cultivation under 5% carbon dioxide at 37° C. for 10 min. […] The absorbance of the microplate thus obtained was measured at 595 nm. […] The inhibition was calculated by the following equation. IC50 was determined from a primary regression line of the logarithm of each concentration of the test compound and the logarithm of (100−inhibition)/inhibition. […]

The test system of test [3] is dog vascular smooth muscle cells. The test can be described thus: adhesion of dog vascular smooth muscle cells to bovine vitronectin. The test is classed as cell-based. The note with it: Canis lupus familiaris, read-out: concentration (IC50) necessary for inhibition of adhesion to vitronectin. The protocol: as §1, §2
Rat vascular smooth muscle cells were cultivated in a medium composed of a mixture of equal amounts of 15% fetal calf serum-containing 199 medium and RPMI 1640 medium. Separately, hamster and dog vascular smooth muscle cells were cultivated in a 10% fetal calf serum-containing Dulbecco's modified Eagle's basal medium. These cultivated cells were then suspended in a Dulbecco's modified Eagle's basal medium to concentrations of 3×10^5 cells/ml (rat), 3×10^5 cells/ml (hamster), and 4×10^5 cells /ml (dog), respectively. Rat vitronectin was used in the adhesion system of rats and hamsters, while bovine vitronectin was used in the adhesion system of dogs.

The test system of test [4] is platelet aggregation. As to the kind of experiment: inhibition of platelet aggregation, dog. The conditions noted are these: Canis lupus familiaris, read-out: concentration (IC50) necessary for inhibition of platelet aggregation. The test is classed as cell-based.
Test [5] concerns U937 cells. As to the kind of experiment: adhesion of human monocytes (U937 cells) to human activated vascular endothelial cells. It counts as cell-based. The note with it: average on three wells±SD, control group 4522±1027. The protocol:
The adhesion of human monocytes to vascular endothelial cells was measured with reference to the method of Murphy et al. (J. F. Murphy et al., Biochem. J. 304, 537 (1994)). Human funicular venoendothelial cells (4×10^4/well), which had been cultivated in a type-I collagen-coated flask containing a 199 medium containing an endothelial cell growth factor (15 μg/ml), heparin (5 U/ml), and 20% fetal calf serum, were cultivated using a type-I collagen-coated microplate in the above medium under 5% carbon dioxide at 37° C. for 2 days to prepare a layer of vascular endothelial cells. The layer of vascular endothelial cells was washed with PBS (−) and was then cultivated in PBS (−) containing 1 U/ml bovine thrombin, 5 mM CaCl2, and 5 mM MgCl2 for 5 min, followed -by washing with PBS(−) containing 10^-6 M D-phenylalanyl-L-prolyl-L-argininechloromethane and with PBS(−).
Next, U937 cells, which had been cultivated in an RPMI 1640 medium containing 10% fetal calf serum, were cultivated in the above medium containing 6 μM 2′,7′-bis(carboxyethyl)carboxyfluorescein tetraacetoxymethyl ester under 5% carbon dioxide at 37° C. for one hr, were washed with PBS (−), and were subjected to fluorescent labeling. The labeled U937 cells (2×10^5/well), the medicament, and 100 μl of an RPMI 1640 medium containing 1% fetal calf serum were added onto the layer of vascular endothelial cells, and an adhesion reaction was allowed to proceed under 5% carbon dioxide at 37° C. for 10 min. Next, nonadherent cells were removed, and 50 mM Tris HCl (pH 8.4) containing 0.1% sodium dodecylsulfate was added to elute the fluorescent dye, followed by fluorometry (excitation wavelength 485 nm, measurement wavelength 530 nm).

Test [6] deals with rat peritoneal cavity macrophage.
Experimental: A Dulbecco's phosphate buffer (PBS (−)) solution of rat serum-derived vitronectin adjusted to a concentration of 5 μg/ml was first added to wells (50 μl/well) of a microplate (Maxisorp), and a reaction for immobilization was allowed to proceed at 4° C. overnight. After washing twice with 150 μl of PBS (−), PBS (−) containing 10 mg/ml of bovine serum albumin was added, followed by blocking at 37° C. for one hr. The microplate was then washed twice with 150 μl of PBS (−) to prepare an assay plate.
Rat peritoneal cavity macrophage was collected after the induction of thioglycolate into the peritoneal cavity. Specifically, a 3% thioglycolate medium was intraperitoneally administered into Wistar male rats (300 to 400 g) at a dose of 100 ml/kg, and, four days after the administration, intraperitoneal fluid and cold PBS (−) (100 ml/kg) injected into the peritoneal cavity were withdrawn to collect macrophage. The macrophage was isolated by removing nonadherent cells. Specifically, the cells collected from the peritoneal cavity were washed twice with PBS (−) and were then cultivated in a Dulbecco's modified Eagle's basal medium containing 0.1% bovine serum albumin under 5% carbon dioxide for 30 min to perform adhesion of macrophage. Next, nonadherent cells were removed, followed by washing with PBS (−). Thereafter, macrophage was collected with a cell scraper. The collected rat macrophage was washed twice with PBS (−) and was then suspended in a Dulbecco's modified Eagle's basal medium to a concentration of 8×10^5/ml. Next, 50 μl of a Dulbecco's modified Eagle's basal medium containing 0.2% bovine serum albumin with a medicament added thereto was added to the wells of the vitronectin-coated assay microplate, followed by pre-cultivation under 5% carbon dioxide at 37° C. for 10 min. Thereafter, 50 μl of the Dulbecco's modified Eagle's basal medium with macrophage suspended therein was added thereto, and the plate was thoroughly stirred. A reaction was allowed to proceed under 5% carbon dioxide at 37° C. for 10 min. […] The absorbance of the microplate thus obtained was measured at 595 nm.

SMILES strings stand for the structures. Where two headings read alike, the source gives them in different places.

Turning to `O=C(NCC(NS(=O)(=O)c1ccccc1)C(=O)O)c1ccc(N2CCC(NC3=NCCCN3)CC2)c(F)c1` (stereo in doubt) [formula (IV), (2S)-Benzenesulfonylamino-3-[3-fluoro-4-{4-(1,4,5,6-tetrahydropyrimidin-2-ylamino)-piperidin-1-yl}benzoylamino]propionic Acid], the IC50 in test [1] was determined as 37 nM; in test [2] it was 730 nM; in test [3], 26 nM; in test [4], 45 nM. Besides, the “fluorescence intensity (adhered U937 cells)” value in test [5] (10^-6 M) is on record as 3710+969 arbitrary unit; in test [5] (10^-7 M), 4389+640 arbitrary unit; in test [5] (10^−4 M) it was -34+74 arbitrary unit; in test [5] (10^−5 M), 1968±187 arbitrary unit. In addition, the “fluorescence intensity (adhered rat macrophage)” value is reported as 0.086±0.069 arbitrary unit in test [6] (0.1 µM), 0.031 +0.037 arbitrary unit in test [6] (1 µM) and 0.012 +0.038 arbitrary unit in test [6] (10 µM).
